# Measured values: patent publication US20120178672A1, “Compositions and Methods for Sparing Muscle in Renal Insufficiency and During Hemodialysis” (priority 2009, published 2012)
# System: subjects
# Experiment: Rate of urea production by tracer technique after ingestion of EAAs following resistance exercise
# Assay type: in vivo
# Settings: infusion, same tracer methodology, same time interval
# Protocol: Acute changes in the rate of urea production were measured using a tracer technique known to those of skill in the art. […] The reason for the lack of an increase in urea production is believed to be the reutilization of non-essential amino acids for muscle protein synthesis rather than transport to the liver for degradation and incorporation of the nitrogen into urea. This is reflected by the steady drop in the concentration of alanine in the blood, as depicted in the chart of FIG. 2B. Thus, the EAA blend greatly stimulates net muscle protein synthesis without increasing blood urea concentration. This aspect of the disclosed composition is of potentially great advantage to CKD patients, as the provision of intact protein alone increases blood urea while having minimal effect on muscle protein net balance.
row,Compound,Urea production
1,C[C@H](N)C(=O)O [alanine],stimulated urea significantly
2,NC(=O)CC[C@H](N)C(=O)O [glutamine],stimulated urea significantly
